Results taken from patent US20120245186A1, “COMBINATION CANCER THERAPY WITH HSP90 INHIBITORY COMPOUNDS” (SYNTA PHARMACEUTICALS CORP., priority 2009, published 2012).
Where two headings read alike, the source gives them in different places.

Columns and labels:
[1] = test system: human NSCLC cell line NCI-H1975; format: in vivo; conditions: 3 doses, day 32, SCID mice
Protocol: FBS was obtained from ATCC and all other reagents were obtained from Invitrogen Corp. (Carlsbad, Calif., USA). Cells that had been cryopreserved in liquid nitrogen were rapidly thawed at 37° C. and transferred to a tissue culture flask containing growth media and then incubated at 37° C. in a 5% CO2 incubator. […] To inactivate the trypsin, 5 mL of growth media was added and then the contents of the flask were centrifuged to pellet the cells. The supernatant was aspirated and the cell pellet was resuspended in 10 mL of growth media and the cell number determined using a hemocytometer. Cells were seeded into 175 cm^2 flasks containing 50 mL of growth media and incubated at 37° C. in a 5% CO2 incubator.
(§1) Animals were housed 4-5/cage in micro-isolators, with a 12 hr/12 hr light/dark cycle, acclimated for at least 1 week prior to use and fed normal laboratory chow ad libitum.

[2] = test system: HEL92.1.7 erythroleukemia cells; assay: Single agent IC50, alamarBlue cell viability (Example 3), HEL92.1.7; format: cell-based, human; conditions: XLFit
Protocol: (§2) Cell viability was measured using the alamarBlue assay. In brief, cells were plated in 96-well plates in triplicate at 2000 cells per well (H1975) or 5000 cells per well (HEL92.1.7) and incubated at 37° C., 5% CO2 atmosphere for 24 hr prior to the addition of drug or vehicle (0.3% DMSO) to the culture medium. After 72 hr, 10 μl/well alamarBlue was added to the wells and incubated for an additional 3 hr at 37° C., 5% CO2 atmosphere. Fluorescence (560EX/590EM […]) was measured with a SpectraMax microplate reader (Molecular Devices) and the resulting data were used to calculate cell viability, normalized to vehicle control. […] After 72 hr exposure to drug, cell viability was measured.

[3] = test system: NCI-H1975 non-small cell lung carcinoma cells; assay: Single agent IC50, alamarBlue cell viability (Example 3), NCI-H1975; format: cell-based, human; conditions: XLFit
Protocol: as §2

[4] = test system: HCC827 human non-small cell lung cancer (NSCLC) cells; format: in vivo; conditions: day 40, SCID mice
Text: as §1

HT29 colon cancer cells = assay: Single agent IC50, alamarBlue cell viability (Example 3), HT29; format: cell-based, human; conditions: XLFit
H1975 cells = assay: Single agent IC50 in H1975 cells, alamarBlue viability (Example 2); format: cell-based, human; conditions: XLFit
Protocol: After 72 h exposure to either drug, viability was determined by alamarBlue, data from which was used to calculate the IC50 values using XLFit software (ID Business Solutions).

[5] = 72 hr exposure, read-out: Single agent IC50 values, HEL-92.1.7

| SMILES | % T/C value ([1]; Compound 1 50 mg/kg i.v. 1 time per week) | IC50 ([2]; Homo sapiens, HEL 92.1.7, 72 hr exposure) | IC50 ([3]; Homo sapiens, NCI-H1975, 72 hr exposure) | % T/C value ([4]; Compound 1 75 mg/kg 1×/week) | IC50 (HT29 colon cancer cells; Homo sapiens, HT-29, 72 hr exposure) | IC50 (H1975 cells; Homo sapiens, NCI-H1975, 72 h exposure) | IC50 [2, 5] | IC50 ([3]; 72 hr exposure) | % T/C value ([4]; docetaxel 4 mg/kg 1×/week) | IC50 (HT29 colon cancer cells; 72 hr exposure) | % T/C value ([1]; paclitaxel 7.5 mg/kg i.v. 1 time per week) | IC50 (H1975 cells; 72 h exposure) |
| --- | --- | --- | --- | --- | --- | --- | --- | --- | --- | --- | --- | --- |
| CC(C)c1cc(-c2nnc(O)n2-c2ccc3c(ccn3C)c2)c(O)cc1O [Compound 1, 3-(2,4-dihydroxy-5-isopropyl-phenyl)-4-(1-methyl-indol-5-yl)-5-hydroxy-[1,2,4] triazole] | 55% | 32 nM | 13 nM | 26% | 36 nM | 15 nM |  |  |  |  |  |  |
| CC(=O)O[C@@]12CO[C@@H]1C[C@H](O)[C@@]1(C)C(=O)[C@H](O)C3=C(C)[C@@H](OC(=O)[C@H](O)[C@@H](NC(=O)OC(C)(C)C)c4ccccc4)C[C@@](O)([C@@H](OC(=O)c4ccccc4)[C@H]21)C3(C)C [docetaxel] |  |  |  |  |  |  | 14 nM | 1 nM | 46% | 0.6 nM |  |  |
| CC(=O)O[C@H]1C(=O)[C@@]2(C)[C@H]([C@H](OC(=O)c3ccccc3)[C@]3(O)C[C@H](OC(=O)[C@H](O)[C@@H](NC(=O)c4ccccc4)c4ccccc4)C(C)=C1C3(C)C)[C@]1(OC(C)=O)CO[C@@H]1C[C@@H]2O [paclitaxel] |  |  |  |  |  |  | 25 nM | 4 nM |  |  | 38% | 7 nM |
